In PMC9313321 (Biomedicines, 2022):
Several values for one entry are separate records, joined by “and”; a condition that tells them apart may be missing. Identical values can stand only once.

Tests used:
Aβ42 self-aggregation = target: T1, Aβ42 self-aggregation (Homo sapiens, UniProt P05067); assay: biochemical; type: biochemical; details: for inhibition at 20 µM: read-out: Aβ42 Self-Aggreg. Inhib; for Aβ42 Self-Aggreg. Inhib: 20 μM inhibitor, absence of copper, thioflavin-T fluorescence, 37 °C 24 h
T1 construct: Beta-amyloid protein, fragment 1-42; purchased GeneCust
Procedure: The inhibition of Aβ42 aggregation and Cu(II)-induced Aβ42 aggregation, carried out by the RIV–BIM hybrids, was studied using a reported method based on the fluorescence emission of thioflavin T [52, 53].
Solutions of phosphate buffer 0.215 M at pH = 8.00, Na2CO3 300 μM in distilled water, NaOH 250 mM in distilled water, glycine-NaOH 50 mM buffer at pH = 8.50 and CuCl2 240 μM in phosphate buffer were prepared. Stock solutions of […] of the RIV–BIM compounds were prepared in MeOH (with 20% DMSO). Working solutions of 240 μM of the RIV–BIM hybrids were prepared by the proper dilution of their stock solutions with phosphate buffer. A working solution of glycine-NaOH 50 mM buffer at pH = 8.50 containing 5 μM of thioflavin T (ThT) was prepared daily. Aβ42 (GeneCust) was pre-treated with 1,1,1,3,3,3-hexafluoro-2-propanol (HFIP) to obtain a solution of 0.149 mM by brief sonication and vortexing, which was kept covered overnight at room temperature. From the Aβ42 solution, aliquots of 250 μL were placed into Eppendorf tubes under ice and set to evaporate inside a hood at room temperature overnight. When the contents of the Eppendorf tubes were dried, the Aβ42 aliquots were stored at −20 °C until needed. To obtain the Aβ42 working solution, the Aβ42 aliquots were dissolved with a freshly prepared mixture of 69.5 μL of CH3CN/Na2CO3 (300 μM)/NaOH (250 mM) (48.3/48.3/3.4, v/v/v) by brief sonication and vortexing to obtain an Aβ42 solution of 531.24 μM. To this solution, 392.5 μL of phosphate buffer was added, achieving an Aβ42 working solution of 80 μM. To prepare the incubations, three replicates of Aβ42 alone (30 μL Aβ42 80 μM + 30 μL phosphate buffer), Aβ42 with RIV–BIM (30 μL Aβ42 80 μM + 10 μL RIV–BIM 240 μM + 20 μL phosphate buffer), Aβ42 with copper (30 μL Aβ42 80 μM + 10 μL CuCl2 240 μM + 20 μL phosphate buffer) and Aβ42 with copper and RIV–BIM (30 μL Aβ42 80 μM + 10 μL CuCl2 240 μM + 10 μL RIV–BIM 240 μM + 10 μL phosphate buffer) were placed in Eppendorfs. To obtain the blank solutions, a similar number of Eppendorfs, replacing Aβ42 with phosphate buffer, were prepared. Incubations were performed in a water bath at 37 °C with agitation for 24 h. Afterwards, 180 μL of glycine-NaOH 50 mM buffer at pH = 8.50 containing 5 μM of ThT was added to each Eppendorf and then they were vortexed. Finally, 200 μL of solution from each Eppendorf was placed in the wells of a microplate and fluorescence measurements were monitored using a Spectramax Gemini EM (Molecular Devices) fluorimeter with an excitation wavelength of 446 nm and an emission wavelength of 485 nm. Blank signals were subtracted from the corresponding samples. The fluorescence intensity of the Aβ42 + RIV–BIM solution was compared to that of the Aβ42 solution to obtain the inhibition of Aβ42 self-aggregation for each compound. The fluorescence intensity of the Aβ42 + Cu(II) + RIV–BIM solution was compared to that of the Aβ42 + Cu(II) solution to obtain the inhibition of the Cu(II)-induced Aβ42 aggregation for each hybrid.
The anti-amyloidogenic capacity of the compounds was assessed in vitro using the thioflavin T (ThT) method. To record fluorescence emission, excitation (446 nm) and emission (485 nm) wavelengths were used. When ThT binds to amyloid fibrils, an increase in absorbance and emission of this dye occurs with concomitant red shifts of the respective spectra. The percent of inhibition of Aβ42 aggregation is shown in Table 1, and the assays were performed in the presence of 20 μM of inhibitor. These concentration conditions were used to overcome solubility problems of some compounds in the aqueous phosphate buffer working medium. […]. […]

Aβ42 fibrils = target: T2, Aβ42 fibrils (Homo sapiens, UniProt P05067); assay: TEM assay of Aβ42 fibrils in the absence of Cu(II); type: biochemical; details: 48 h 37 °C; for Aβ42 fibril width / Reduction of fibril width vs Aβ42 alone: TEM; for Aβ42 fibril width: CAβ42 = CL = 50 µM, Aβ42 alone 4.9 ± 0.2 nm; for Reduction of fibril width vs Aβ42 alone: 50 µM
T2 construct: Beta-amyloid protein, fragment 1-42; purchased Sigma-Aldrich
Procedure: To perform the TEM assays, commercial Aβ42 purchased from Sigma-Aldrich was pre-treated with pure HFIP, a beta-sheet disruptor, to obtain homogeneous and monomeric Aβ42 [54]. Then, 222 µL of HFIP was added to 1 mg of Aβ42, after which the mixture was vortexed and aliquoted into Eppendorfs. The Eppendorfs were placed in a SpeedVac at 45 °C for 30 min until all HFIP was evaporated. Pre-treated Aβ42 was stored at −20 °C until use. To start the amyloid incubations, pre-treated Aβ42 was equilibrated at room temperature for 30 min. A solution of 5 mM was obtained by dissolution in DMSO and sonication for 5 min. Subsequently, 10 mM HCl was added to obtain a working Aβ42 solution of 200 µM. Stock solutions of Cu(II) and RIV–BIM compounds (4a–d, 5a,b and 5d) at 200 µM were prepared on the same day and working solutions of Aβ42, Aβ42 + Cu(II), Aβ42 + RIV–BIM and Aβ42 + Cu(II) + RIV–BIM (CAβ42 = CCu = CL = 50 µM) were prepared by diluting stock solutions in 10 mM HCl. Working solutions were incubated for 48 h at 37 °C before being analyzed by TEM. Samples were negatively stained with uranyl acetate 2% (w/v) and analyzed at 100 kv with a JEOL JEM 1400 Plus transmission electron microscope. Fibrils of Aβ42 alone were compared with Aβ42 + RIV–BIM fibrils, and fibrils of Aβ42 + Cu(II) were compared with Aβ42 + Cu(II) + RIV–BIM in order to evaluate the inhibition of the amyloid aggregation, and the widths and lengths of fibrils were measured for each sample. The ImageJ program was used to measure the fibrils (n = 200).
To perform the Aβ42 aggregation assays by TEM, fibrils were incubated using a fluorescence procedure previously described.
Amyloid fibrils remained disaggregated under the effect of the RIV–BIM compounds after 48 h of incubation. […] For each of the performed assays, fibril width was measured, and the results are graphed in Figure 5. Aβ42 fibril width in the absence of Cu(II) (Figure 5a) was 4.9 ± 0.2 nm, and it was modified in the presence of all RIV–BIM compounds: compound 4d was the only one that widened amyloid fibrils (6.7 ± 0.3 nm), while the rest of the compounds narrowed them (3.3–4.5 nm).

T2 sequence (P05067 672-713 limits assumed): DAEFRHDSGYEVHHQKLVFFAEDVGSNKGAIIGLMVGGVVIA
T1 sequence (P05067 672-713 limits assumed): as above

Structure (SMILES) | inhibition at 20 µM (Aβ42 self-aggregation) | Appearance of Aβ42 fibrils in TEM images (Aβ42 fibrils) | Aβ42 fibril width (Aβ42 fibrils) | Aβ42 Self-Aggreg. Inhib (Aβ42 self-aggregation) | Reduction of fibril width vs Aβ42 alone (Aβ42 fibrils)
CCN(C)C(=O)Oc1cccc(NC(=O)c2ccc3nc(-c4ccccc4O)[nH]c3c2)c1 [Compound 4a, 3-(2-(2-Hydroxyphenyl)-1H-benzo[d]imidazole-6-carboxamido)phenyl Ethylmethylcarbamate] | 39% | shortest fibrils | 4.1 nm | – | –
CCN(C)C(=O)Oc1cccc(CNC(=O)c2ccc3nc(-c4ccccc4O)[nH]c3c2)c1 [Compound 4b, 3-((2-(2-Hydroxyphenyl)-1H-benzo[d]imidazole-6-carboxamido)methyl) Phenyl Ethylmethylcarbamate] | 39.6% | shortest fibrils | 4.1 nm | – | –
CCN(C)C(=O)Oc1cccc(CCNC(=O)c2ccc3nc(-c4ccccc4O)[nH]c3c2)c1 [Compound 4c, 3-(2-(2-(2-Hydroxyphenyl)-1H-benzo[d]imidazole-6-carboxamido)ethyl) Phenylethylmethylcarbamate] | 21.2% | quite elongated fibrils | 4.1 nm | very weakly effective | –
CCN(C)C(=O)Oc1ccc(CCCNC(=O)c2ccc3nc(-c4ccccc4O)[nH]c3c2)cc1 [Compound 4d, 4-(3-(2-(2-Hydroxyphenyl)-1H-benzo[d]imidazole-6-carboxamido)propyl) Phenyl Ethylmethylcarbamate] | 20.1% | quite elongated fibrils | 6.7 nm and 6.7 ± 0.3 nm | very weakly effective | –
CCN(C)C(=O)Oc1cccc(NC(=O)c2cccc3[nH]c(-c4ccccc4O)nc23)c1 [Compound 5a, 3-(2-(2-Hydroxyphenyl)-1H-benzo[d]imidazole-4-carboxamido)phenyl Ethylmethylcarbamate] | 44.5% | – | 4.5 nm | – | –
CCN(C)C(=O)Oc1cccc(CNC(=O)c2cccc3[nH]c(-c4ccccc4O)nc23)c1 [Compound 5b, 3-((2-(2-Hydroxyphenyl)-1H-benzo[d]imidazole-4-carboxamido)methyl) Phenyl Ethylmethylcarbamate] | 58.7% | shortest fibrils | 3.8 nm and 3.8 ± 0.1 nm | – | 22.4%
CCN(C)C(=O)Oc1ccc(CCCNC(=O)c2cccc3[nH]c(-c4ccccc4O)nc23)cc1 [Compound 5d, 4-(3-(2-(2-Hydroxyphenyl)-1H-benzo[d]imidazole-4-carboxamido) Propyl) Phenyl Ethyl(methyl)carbamate] | 42.1% | – | 3.3 nm and 3.3 ± 0.2 nm | – | 32.7%
